Data taken from patent publication US20070244009A1, “Agent for Inhibiting Bolting Induction and/or Floral-Bud Differentiation in Plants” (National University Corporation Hokkaido Universit, priority 2004, published 2007).
“Also recorded” adds a separate entry of the source.

Experiments:
morning glory [1] = conditions: solution sprayed to leaves of morning glory, non-inducing conditions; cited from earlier work
[2] = tested on: spinach (Spinacia oleracea L.); assay: Stem elongation (bolting) of spinach after foliar spraying; type: in vivo
Protocol: (§1) In other words, while they searched for the substance having bolting induction inhibition and/or floral differentiation inhibition activities, they examine the effect of theobroxide on stem elongation and differentiation of floral-buds in spinach (long-day plant), after spraying theobroxide on the surfaces of spinach leaves. The day-length conditions examined were long-day (16 hours-light period, 8 hours-dark period), and short-day (10 hours-light period, 14 hours-dark period). The concentration of theobroxide for foliar application is set at 10^−3 M, and testing was started after a preliminary growth (two weeks, long-day condition). The spraying condition was that 5 ml of the solution was sprayed over four weeks every two days after the preliminary growth. As the results, under the short-day condition (bolting non-inducing condition), no difference was observed when compared to the control. Under the long-day condition (bolting induction and floral differentiation condition), the stem elongation of the theobroxide treated plants was suppressed 37% in the fourth week, when compared to that of the control.
(§2) Before the test, spinach was grown for 5 weeks in a growth chamber (NK Systems, Biotron NC350), under a short-day (SD) condition (light period-10 hours/dark period-14 hours) with a peat moss/Pearlite mixture (1:1.5, v/v). A test solution was sprayed on leaves every two days. Water and Hyponex in liquid form (manufactured by Hyponex Japan Co.) were given to the plants every two days and once a week, respectively. The long-day (LD) and short-day (SD) photoperiodic cycles were 16-hour light period/8-hour dark period, and 10-hours light period/14-hour dark period, respectively. The growth chamber was equipped with 20 fluorescent lamps (NEC FL40SEX-N-HG) to provide a light intensity of 90 μmol^−2s^−1, and set at 25 degrees centigrade and the relative humidity of 60%. The test used ten plants for each processing, and was repeated at least three times.
The theobroxide for the test was isolated from the incubation filtrate of Lasiodiplodia theobromae. The data of NMR, RI and MS were compared with the standard one and their structures were confirmed. Theobroxide was dissolved in distilled water that includes Tween 20 (100 ppm) to adjust its concentration to 10^−3M. To the plants for the control, the same amount of distilled water including 100 ppm of Tween 20 was given. The two kinds of solution were given to leaves of the plants, the total of 5 ml per plant, every two days, using plastic spray bottles. […] Stem heights from the bases of stems to the tip of the stems or the inflorescence were measured (Plant Physiol.: 821-827,1971).

potato [3] = conditions: culture of a single node section of a potato stem; cited from earlier work
morning glory [4] = conditions: in vivo; cited from earlier work
[5] = tested on: spinach (Spinacia oleracea L.); assay: Floral differentiation of spinach after foliar spraying; type: in vivo; conditions: 10^-3 M foliar spray; for Floral Differentiation Rate (%) Average: mean of three tests
Protocol: as §1, §2
The theobroxide for the test was isolated from the incubation filtrate of Lasiodiplodia theobromae. The data of NMR, RI and MS were compared with the standard one and their structures were confirmed. Theobroxide was dissolved in distilled water that includes Tween 20 (100 ppm) to adjust its concentration to 10^−3M. To the plants for the control, the same amount of distilled water including 100 ppm of Tween 20 was given. The two kinds of solution were given to leaves of the plants, the total of 5 ml per plant, every two days, using plastic spray bottles. After planting them in advance, 20 boxes were transferred to the LD condition for a LD treatment (10 boxes of which was for control, and the other 10 boxes for the theobroxide treatment). After planting them in advance, 20 boxes were left under the SD for a SD treatment as before (10 boxes of which is for the control, and the other 10 boxes for theobroxide treatment). Stem heights from the bases of stems to the tip of the stems or the inflorescence were measured (Plant Physiol.: 821-827,1971).
In addition, in the tests shown in Table 1, plants were grown under a long-day condition for six weeks. The theobroxide treatment was started after they were transferred to the long-day condition. After six weeks, the plants were collected, and the number of the plants in which floral differentiation took place was counted.

potato [6] = conditions: solution sprayed to leaflets of potato, non-inducing conditions; cited from earlier work

Compound: CC1=CC(O)C2OC2C1O (stereo not shown) [theobroxide, 3,6-dihydroxy-4,5-epoxy-1-methylcyclohexene]
- flower buds inducing activity (morning glory [1]): flower buds inducing activity
- stem elongation (FIGS. 3A-B, FIG. 4), result in words ([2]; induction condition (LD), theobroxide treatment): stem elongation was suppressed
- suppression effect on stem lengths compared to the control ([2]; long-day (LD) condition, 10^-3 M foliar spray, after six weeks): 37%
- suppression of stem elongation compared to the control ([2]; long-day condition, 10^-3 M foliar spray, 5 ml every two days, fourth week): 37%
- difference in stem lengths compared to the control ([2]; short-day condition (bolting non-inducing), 10^-3 M foliar spray): no difference; also recorded: not apparent difference
- potato tuber formation activity (potato [3]): strong potato tuber formation activity
- effect on stem elongation of morning glory (morning glory [4]): inhibitory effect
- Floral Differentiation Rate (%) Test 1 ([5]; long-day condition, six weeks, Test 1): 50% (5/10)
- Floral Differentiation Rate (%) Test 2 ([5]; long-day condition, six weeks, Test 2): 40% (4/10)
- Floral Differentiation Rate (%) Average ([5]; long-day condition, six weeks): 43.3%
- Floral Differentiation Rate (%) Average ([5]; long-day condition, six weeks, listed as Theobroxide): 43.3%
- difference in flower formation compared to the control ([5]; short-day condition): no difference; also recorded: not apparent difference
- potato tuber formation (potato [6]): strong potato tuber formation
